The subject of series [1] is NSCLC NCI-H460. The series is described as follows: GI50 in NSCLC NCI-H460 cells (CellTiter-Glo). In kind it is cell-based, human. As for the experimental part: (§1) As per methods previously presented, cells were grown in an appropriate medium for the cell line of interest. 96 well plates of each cell line were seeded with 5000 cells per well and left overnight. […] Luminescence was recorded on a Synergy 4.0 (BioTek Instruments, Winooski, VT, USA). Assays were performed in triplicate.
Background: ATP-based viability assays read luminescence as a measure of living cells.

For series [2], the system named is Colon Cancer HCT-116. The series is described as follows: GI50 in colon cancer HCT-116 cells (CellTiter-Glo). In kind it is cell-based, human. As for the experimental part:
as §1

On the set-up of series [3]: method as in PMID 28726739. The note with it: mice; cited from earlier work.
The subject of series [4] is human NSCLC NCI-H460. The series is described as follows: Human NSCLC NCI-H460 xenograft. The note with it: for deaths in group / mice that developed tumor ulceration: NCI-H460 xenograft; for deaths in group: n = 10 per group, NUC041: 0.6 mg group; for mice that developed tumor ulceration: NUC041 both PPD groups, evaluable mice, SC 4 of 10; for mean tumor volume at which ulceration developed: SC 2770; for Median survival: p = NS.
Description: Survival refers to animals that were not removed from the study by death or per protocol euthanasia.
Mice with tumors in the proper volume range were arbitrarily assigned to groups. Mice received test article as described in the text. Mice were observed daily for mortality and moribundity with weights and the tumor measurements taken twice weekly. Tumor volume was determined using the formula for an ellipsoid sphere: Length × Width^2/2 = Volume (mm^3). The experiments were scheduled to last 60 days from the day of tumor implant.

Series [5] relates to human NSCLC NCI-H460. The series is described as follows: Tumor histology of NCI-H460 xenografts. In kind it is in vivo, NCr-nu/nu mice. An excerpt:
Approximately half of each tumor was fixed in 10% neutral-buffered formalin and the other half was frozen. The fixed neoplasm was trimmed, processed, embedded, and microtomed (approximately 5 µm sections). Tissue sections were mounted on glass slides, stained with hematoxylin and eosin (H&E), and coverslipped. Slides were submitted to a veterinary pathologist for a histopathologic evaluation.

Series [6] relates to human colon cancer (LoVo). The series is described as follows: Mouse xenograft model of human colon cancer (LoVo). It is filed as in vivo, NCr-nu/nu mice. As for the experimental part: NUC041 in LNE was tested at 30 mg/kg IV for three consecutive days a week for three weeks in a mouse xenograft model of human colon cancer (Lovo) and compared to saline control (SC).
Study initiation began when the required number of mice had tumors of approximately 40 to 75 mm^3. […] Study initiation began when the required number of mice had tumors of approximately 32 to 75 mm^3.
Mice received test article as described in the text. […] Any animal whose weight decreased more than 30% from the weight on the first day of treatment or whose tumor reached 4000 mm^3 in volume, ulcerated, sloughed off, or was moribund was euthanized prior to study termination.
(In general: A xenograft is tissue or cells of one species grown in another, often human tumour cells in immunodeficient mice.)

A short description of series [7]: Pharmacokinetics in mouse whole blood after IM NUC041 in PEG-phospholipid depot (PPD). The note with it: analyte in whole blood, NUC041 3 mg/mouse IM in PPD, mice.
Description: Quantitative determination of NUC013 and NUC041 in quenched mouse whole blood was accomplished using protein precipitation and high-performance liquid chromatography with tandem mass spectrometry detection. Gemcitabine-^13C, ^15N2 “GemC-^13C”, was used as the internal standard. NUC013, NUC041 and GemC-^13C were extracted from 50 µL whole blood using protein precipitation with acetonitrile. Extracts were analyzed by hydrophilic interaction chromatography at 35 °C, using a XBridge™ Amide column (Waters Corp., Milford, MA, USA) under isocratic conditions, with 100 mM ammonium acetate pH 9: ethanol: acetonitrile (25:25:500, v/v/v) as mobile phase A. Column effluents at a constant flow rate of 300 µL/min were analyzed by multiple reaction monitoring (MRM) using a triple quadrupole mass spectrometer in positive-ion mode (AB Sciex 4000 Q Trap, equipped with TurboV IonSpray®) (SCIEX, Framingham, MA, USA).
The calibration curve for each analyte was fitted using weighted (1/x^2) linear regression analysis of the Analyte/IS peak area ratio versus Analyte/IS concentration ratio from 5–5000 ng/mL.
Pharmacokinetic parameters were calculated from mean concentrations of NUC-041 or NUC013 in blood over time for mice using Phoenix® WinNonlin® (Version 6.3; Pharsight, A Certara Company; Cary, NC, USA).
The PEG-phospholipid depot (Latitude Pharmaceuticals, San Diego, CA, USA) comprised of S-100, DSPE-PEG 2000, sesame oil, and alcohol. These four constituents were placed in a vial, warmed to 40 °C until all products dissolved, and the vehicle was then vortexed. Subsequently, the vehicle was filtered through a 0.22 µm syringe filter and NUC041 was added. The formulated product was heated to 40 °C, vortexed, and stored at 2–8 °C.
Series [8] is described as follows: Tolerability studies of NUC041 formulated in PPD. It is filed as in vivo, mice. As for the experimental part: Administration of 50 µL of PPD vehicle IM led to a weight loss of 10.9% two days following vehicle administration. NUC041 was formulated at a concentration of 60 mg/mL in this vehicle.
Series [9] can be described thus: Pharmacokinetics in mouse whole blood after IV NUC041 in lipid nano-emulsion (LNE). The note with it: analyte in whole blood, NUC041 15 mg/kg IV in LNE vehicle, mice. An excerpt: As per methods previously presented, the lipid nano-emulsion (Latitude Pharmaceuticals, San Diego, CA, USA) contained an oil phase consisting of an injectable oil and lecithin and an aqueous phase comprising a tonicity adjuster, a stabilizer, and water.

The conditions of series [10]: continuous infusion over seven days, patients with refractory solid tumors; cited from earlier work.
Where [11] appears, read: Mice 2-4 (individual), NUC041 0.6 mg/mouse qod, euthanasia day 34.
Setting [12] is: Mouse 1, NUC041 2.4/3.0 mg/mouse qwk + dexamethasone, euthanasia day 35.
[13] abbreviates: IM, mice premedicated with dexamethasone 50 µg IP.

Values joined by “and” are separate entries in the source; they are usually repeats but may differ in a detail not shown here. Equal entries are not always repeated. “Also recorded” adds a separate entry of the source. Where two headings read alike, the source gives them in different places. Bounds are passed on as bounds.

Consider `Nc1ncn([C@@H]2O[C@H](CO)[C@@H](O)C2(F)F)c(=O)n1` [NUC013, 5-aza-2′,2′-difluorodeoxycytidine], for which, in series [1] (Homo sapiens, NCI-H460, 72 h exposure), the GI50 is 1.57 µM. In addition, the GI50 in series [2] (Homo sapiens, HCT-116, 72 h exposure) amounted to 2.58 µM. In series [3], the MTD was more than 120 mg/kg. Also, in [4], the deaths in group result is on record as “One” and the “mice that developed tumor ulceration” value is given as 1 of 10. In addition, the “hazard ratio (HR) vs SC” value in [4] (NUC013 20 mg/kg IV qd three consecutive days per week x 4, p = 0.0018, Log rank test) was 0.14.

Take “3′,5′-di-trimethylsilyl-2′,2′-difluoro-5-azadeoxycytidine [NUC041]”: in series [1] (72 h exposure), the GI50 came to 1.61 µM. Also, the 50% growth inhibitory concentration (GI50) in series [2] (72 h exposure) stood at 2.8 µM. Also, in [5] (setting [11]), the “Tumor Volume” value is 3035 mm^3 and 1960 mm^3 and 936 mm^3; the Ulceration entry was “no ulceration; also recorded: ulceration”. For the same molecule, in series [5] (Mice 2-4 (individual), NUC041 0.6 mg/mouse qod, euthanasia day 34, in ulcerated tumors excludes area of ulceration), the “Histopathology: necrosis” value was 50–60% necrosis and 10% necrosis * and 5% necrosis *. Besides, in [5] (setting [12]), the “Histopathology: necrosis” value is reported as 30–40% necrosis, the “Tumor Volume” value was 2746 mm^3 and the Ulceration entry is “no ulceration”. The “mice with tumor ulcerations, LoVo study” value in series [6] (NUC041 administered IV in LNE, SC 3/10) was 2/10. The “efficacy in xenograft model of human colon cancer (LoVo)” value in [6] (NUC041 in LNE 30 mg/kg IV) is recorded as “only moderate efficacy”. Also, the “study days on which growth of LoVo was significantly inhibited compared to SC” value in [6] (NUC041 in LNE 30 mg/kg IV, three consecutive days a week for three weeks, p < 0.05) is given as 27–30 study days. Moreover, in series [7], the AUCinf came out at 6261 ng·h/mL, the AUClast came to 6030 ng·h/mL, the Cmax stood at 4210 ng/mL and the mean residence time (MRT) amounted to 156 min. In [7], the T1/2 came out at 102 min, the Tmax worked out at 30 min and the Vz/F was 1.172 L/kg. For the same molecule, the “mean tumor volume at which ulceration developed” value in [4] (0.6 mg NUC041 group, p = 0.0068) worked out at 1474 mm^3. In series [4] (3 mg NUC041 with dexamethasone group, p = 0.0043), the “mean tumor volume at which ulceration developed” value amounted to 1319 mm^3. Besides, in series [4], the deaths in group entry is “two” and the “mice that developed tumor ulceration” value is listed as 15 of 18. The molecule further showed a Median survival in [4] (NUC041 0.6 mg IM qod x 15) of 24.5 days. Also, in [4] (NUC041 0.6 mg group, Mice 3 and 4), the peak tumor volume was 3179 mm^3 and 1913 mm^3. Besides, the “regression in tumor volume” value in series [4] (NUC041 0.6 mg group, two individual mice with ulcerated tumors (Mice 3 and 4), day 25 to 32) is 38% and 51%. In series [4] (NUC041 2.4 mg/mouse IM qwk x 3 then 3.0 mg/mouse qwk x 1 with 50 µg dexamethasone IP), this molecule yielded a Median survival of 25.5 days. In addition, the “survival benefit vs SC” value in series [4] (NUC041 in PPD with or without dexamethasone pretreatment) was “no survival benefit”. Besides, in series [8] (50 µg IP dexamethasone 30 min prior), the “tolerability of IM injection of 3 mg per mouse” value is “without weight loss or lethality”. Besides, the “maximum tolerated dose (MTD)” value in series [8] (IM qod, no premedication, mice) came to 0.6 mg/mouse. Moreover, in series [8] (setting [13]), the MTD is reported as more than 3 mg/mouse and the “MTD as mean dose” value is listed as more than 123.8 mg/kg. In [9], this molecule returned an AUCinf of 590.6 ng·h/mL, an AUClast of 580.4 ng·h/mL, a Cl of 423 mL/min/kg and a Cmax of 2803 ng/mL. In [9], this molecule registered a T1/2 of 11 min and a Vss of 4.431 L/kg. Further, in [9] (for NUC041 first sampling time), the time to peak (Tmax) was 3 min.

In the case of `Nc1ncn([C@H]2C[C@H](O)[C@@H](CO)O2)c(=O)n1` [decitabine], in series [10], the MTD is listed as 2 mg/m^2 qd and the “main dose limiting toxicity” value is “neutropenia”.

The GI50 is the concentration giving 50% growth inhibition. Usually Cmax stands for the peak of the concentration-time curve. Usually MRT stands for a mean duration of stay, worked out from the concentration-time curve. Broadly, the Tmax is the time from dosing to the highest level. In general, Vss refers to the apparent volume that relates the amount in the body to the concentration in plasma or blood. A low value points to confinement near the circulation.
